Measurements published in PMC11189555, “Aryl amino acetamides prevent Plasmodium falciparum ring development via targeting the lipid-transfer protein PfSTART1” (Nature Communications, 2024).
Where “and” joins values, the source holds several entries; their conditions need not be identical. Equal entries are not always repeated. Where two headings read alike, the source gives them in different places.

Assays:
[1] = system: CR-N309K parasites; assay: Growth inhibition assay (72 h, LDH activity); format: cell-based, Plasmodium falciparum
Procedure: (§1) Parasite growth assays with inhibitory compounds were performed as per[11] and are fully described in the Supplementary Information.
(§2) Molecular biology and transfection of P. falciparum: CRISPR method.
(§3) The full 5’ homology region of pfstart1 (either WT, N309K or N330K) was amplified from pPfSTART1-HA-2A-Neo-glmS with the same 5’ BglII primer and a new 3’ primer that replaced with PstI with SpeI and introduced a stop codon. The PCR product was then digested with BglII and SpeI and inserted into similarly digested p1.2 parasite vector2. The p1.2 vector had previously been inserted with a homology region amplified from the 3’ end of the pfstart1 gene (3’HB) to form a second homology block for double recombination. The primers used to amplify 3’HB are listed primers listed in […]
(§4) 60 μg of p1.2-PfSTART1(WT/N309K/N330K) plasmid was linearised with KasI, precipitated in 3 M sodium acetate and ethanol (70% final concentration) overnight at -20°C. The DNA pellet was washed in cold 70% ethanol and resuspended in cytomix 3.
(§5) 50 μ M of crRNA ( Table S 2) and 50 μM of tracRNA (Integrated DNA Technologies) were allowed to form a duplex (5 min at 95°C), and Cas9 enzyme (Integrated DNA Technologies) was added, and incubated for 20 min at room temperature 4. This crRNA -tracRNA -Cas9 mix was added to each DNA preparation and transfected to 3D7 ring parasites using the Bio -Rad Gene Pulser at 310 V and 950 μF.
(§6) Parasites containing the transfected DNA were selected using 2.5 nM WR99210 (Jacobus). Parasites lines were cloned using limiting dilution. Correct integration was tested by PCR (using primer START_5’UTR.F and START_Int.R1 , Table S 2), and sequencing was done using the primers START_3F and START_Int.R2 (Table S 2).
(§7) Growth inhibition assays. Synchronised ring-stage parasites (0.3-0.6% parasitemia, 2% haematocrit) were grown for 72 h in a serial-dilution of the compound under […]
(§8) and compound 4. Note that M-833 was first purchased from MolPort (MolPort -002-267-916) then made in-house at WEHI: the differences observed in EC50s across experiments are attributed to the different batches of M -833. For some experiments, 0, 0.25 or 2.5 mM of glucosamine (GlcN) was also added. Experiments were set up in technical duplicates or triplicates. Following a freeze -thaw cycle, lactate dehydrogenase (LDH) activity was assessed as an indicator of parasite growt h 5. 30 μL of parasite culture was incubated for 30 min in the dark with 75 μL Malstat mixture (0.1 M Tris pH 9.0, 20 g/L lactic acid, pH 7.5, 0.2% Triton-X100, 0.5 g/L acetylpyridine adenine dinucleotide (APAD, Sigma), 200 μg/mL nitroblue tetrazolium (NBT; Sigma), 1 μg/mL phenozine ethosulfate (PES; Sigma)). Absorbance was then measured at 650 nm, transformed using the formula below, plotted against the logarithm of the concentrations, and a non-linear regression (log(inhibitor) vs. response, variable slope) was calculated using GraphPad Prism to assess the half-inhibitory […]
(§9) Growth inhibition % = (1 − average(sample)− average(uRBC)) ∗ 100 […]
(§10) The DMSO samples were also used to assess growth of parasite in the presence of 0.25 and 2.5 mM GlcN (normalised by DMSO in 0 mM GlcN).
(§11) Egress, invasion & recovery assay. To measure egress, invasion and follow up recovery in the presence of different compounds, we adapted the method developed in6, using Hyp1-Nluc parasites7. These parasites episomally express the exported PEXEL protein Hyp1 (PF3D7_0113300) tagged with a NanoLuc luciferase (NLuc) and were selected with 2.5 nM WR99210 (Jacobus). Highly synchronised schizonts were obtained using ML10 (LifeArc) and sorbitol synchronisation, and Percoll-purified (the culture was gently layered over 67% Percoll (Cytiva) in RPMI, and centrifuged for 15 min at 1500 g and the schizont layer was collected and washed). In a 96-well plate, […]

[2] = system: CR-N330K parasites; assay: Growth inhibition assay (72 h, LDH activity); format: cell-based, Plasmodium falciparum; conditions: for inhibition at 40 µM / inhibition at 0.00203221 µM / inhibition at 0.00609663 µM / inhibition at 0.0182899 µM / inhibition at 0.0548697 µM / inhibition at 0.164609 µM / inhibition at 0.493827 µM / inhibition at 1.48148 µM / inhibition at 4.44444 µM / inhibition at 13.3333 µM / EC50: Plasmodium falciparum; for inhibition at 40 µM / inhibition at 0.00203221 µM / inhibition at 0.00609663 µM / inhibition at 0.0182899 µM / inhibition at 0.0548697 µM / inhibition at 0.164609 µM / inhibition at 0.493827 µM / inhibition at 1.48148 µM / inhibition at 4.44444 µM / inhibition at 13.3333 µM: read-out: Growth inhibition assay, NORMALISED; for inhibition at 0.00203221 µM: conc 2.03221 nM; for inhibition at 0.00609663 µM: conc 6.09663 nM; for inhibition at 0.0182899 µM: conc 18.2899 nM; for inhibition at 0.0548697 µM: conc 54.8697 nM; for inhibition at 0.164609 µM: conc 164.609 nM; for inhibition at 0.493827 µM: conc 493.827 nM; for inhibition at 1.48148 µM: conc 1481.48 nM; for inhibition at 4.44444 µM: conc 4444.44 nM
Procedure: as §1, §2, §3, §4, §5, §6, §7, §8, §9, §10, §11

[3] = 0.25 mM GlcN, M833 dilution point 1 of 10 (starting concentration 40 uM)
[4] = 2.5 mM GlcN, M833 dilution point 1 of 10 (starting concentration 40 uM)
[5] = 2.5 mM GlcN, M833 dilution point 2 of 10 from 40 uM start
[6] = 2.5 mM GlcN, M833 dilution point 3 of 10 from 40 uM start

Cc1cc(Cl)c(S(=O)(=O)N2CCCC2)cc1OCC(=O)NC1CCCCC1 [M-833]
Growth inhibition assay, NORMALISED ([1]; 0 mM GlcN, conc 13333.3 nM): 96.3035 and 81.5013
Growth inhibition assay, NORMALISED ([1]; 0 mM GlcN, conc 40000 nM): 90.3753
NORMALISED (growth inhibition, LDH absorbance vs DMSO and uRBC) [1, 3]: 109.622 and 93.8958 and 89.0356
NORMALISED (growth inhibition, LDH absorbance vs DMSO and uRBC) ([1]; 0.25 mM GlcN, M833 dilution point 2 of 10 from 40 uM start): 100.45 and 85.8318 and 85.1660
NORMALISED (growth inhibition, LDH absorbance vs DMSO and uRBC) ([1]; 0.25 mM GlcN, M833 dilution point 3 of 10 from 40 uM start): 91.9964 and 60.0606 and 52.4793
NORMALISED (growth inhibition, LDH absorbance vs DMSO and uRBC) [1, 4]: 151.073 and 87.1969 and 79.8969
NORMALISED (growth inhibition, LDH absorbance vs DMSO and uRBC) [1, 5]: 113.734 and 82.9449 and 82.5963
NORMALISED (growth inhibition, LDH absorbance vs DMSO and uRBC) [1, 6]: 124.034 and 76.1318 and 75.9272
fold resistance compared to CR-WT ([1]; Fig 2D): over 81 fold
inhibition at 40 µM ([1]; Plasmodium falciparum, 0 mM GlcN, conc 40000 nM, read-out: Growth inhibition assay, NORMALISED): 107%
EC50 ([1]; Plasmodium falciparum, 72 h, read-out: EC50 (95% confidence interval), Fig 2D, 72 h, n = 3): 4.03 µM
EC50 ([1]; Plasmodium falciparum, Fig 3F, 0 mM GlcN, n = 3, read-out: EC50 M-833 (95% confidence interval)): 4 µM
EC50 ([1]; Plasmodium falciparum, read-out: EC50 M-833 (95% confidence interval), Fig 3F, 0.25 mM GlcN, n = 3): 2.18 µM
EC50 ([1]; Plasmodium falciparum, read-out: EC50 M-833 (95% confidence interval), Fig 3F, 2.5 mM GlcN, n = 3): 0.768 µM
fold reduction of EC50 on addition of 2.5 mM GlcN ([1]; not statistically significant): 5.2 fold
effect of GlcN addition on EC50 [2]: did not impact the EC50
Growth inhibition assay, NORMALISED ([2]; 0 mM GlcN, conc 13333.3 nM): 83.0053 and 71.7328 and 58.9456
Growth inhibition assay, NORMALISED ([2]; 0 mM GlcN, conc 40000 nM): 89.2357 and 89.8575
NORMALISED (growth inhibition, LDH absorbance vs DMSO and uRBC) [2, 3]: 90.8081 and 87.9797 and 87.1506
NORMALISED (growth inhibition, LDH absorbance vs DMSO and uRBC) [2, 4]: 93.6897 and 84.3760 and 68.7638
NORMALISED (growth inhibition, LDH absorbance vs DMSO and uRBC) [2, 5]: 66.9588 and 63.6686 and 78.5050
NORMALISED (growth inhibition, LDH absorbance vs DMSO and uRBC) [2, 6]: 62.4014 and 35.5339 and 55.9192
fold resistance compared to CR-WT ([2]; Fig 2D): over 81 fold
inhibition at 40 µM ([2]; 0 mM GlcN, conc 40000 nM): 98.2%
inhibition at 0.00203221 µM ([2]; 0.25 mM GlcN): 1.04%
inhibition at 0.00609663 µM ([2]; 0.25 mM GlcN): 4.9%
inhibition at 0.0182899 µM ([2]; 0.25 mM GlcN): 1.5%
inhibition at 0.0548697 µM ([2]; 0.25 mM GlcN): 3.6%
inhibition at 0.164609 µM ([2]; 0.25 mM GlcN): -2.8%
inhibition at 0.493827 µM ([2]; 0.25 mM GlcN): 5.89%
inhibition at 1.48148 µM ([2]; 0.25 mM GlcN): 18.6%
inhibition at 4.44444 µM ([2]; 0.25 mM GlcN): 54.4%
inhibition at 13.3333 µM ([2]; 0.25 mM GlcN, conc 13333.3 nM): 83.8%
inhibition at 40 µM ([2]; 0.25 mM GlcN, conc 40000 nM): 98.3%
inhibition at 0.00203221 µM ([2]; 2.5 mM GlcN): -48.3%
inhibition at 0.00609663 µM ([2]; 2.5 mM GlcN): -31%
inhibition at 0.0182899 µM ([2]; 2.5 mM GlcN): -30.8%
inhibition at 0.0548697 µM ([2]; 2.5 mM GlcN): -27.3%
inhibition at 0.164609 µM ([2]; 2.5 mM GlcN): -23.4%
inhibition at 0.493827 µM ([2]; 2.5 mM GlcN): -11.7%
inhibition at 1.48148 µM ([2]; 2.5 mM GlcN): 13.1%
inhibition at 4.44444 µM ([2]; 2.5 mM GlcN): 36.6%
inhibition at 13.3333 µM ([2]; 2.5 mM GlcN, conc 13333.3 nM): 32.3%
inhibition at 40 µM ([2]; 2.5 mM GlcN, conc 40000 nM): 94%
EC50 ([2]; 72 h, read-out: EC50 (95% confidence interval), Fig 2D, 72 h, n = 3): 9.51 µM
EC50 ([2]; Fig 3F, 0 mM GlcN, n = 3, read-out: EC50 M-833 (95% confidence interval)): 9.5 µM
EC50 ([2]; read-out: EC50 M-833 (95% confidence interval), Fig 3F, 0.25 mM GlcN, n = 3): 8.92 µM
EC50 ([2]; read-out: EC50 M-833 (95% confidence interval), Fig 3F, 2.5 mM GlcN, n = 3): 8.73 µM
